The text below walks through data of patent EP2818472A1, “Imidazo[4,5-c]pyridine and pyrrolo[3,2-c]pyridine compounds as G-protein-coupled receptor kinase 5 (GRK5) modulators” (Max-Planck-Gesellschaft zur Förderung der Wissenschaften …, priority 2013, dated 2014).

The subject of this experiment is beta-TC6 cells. Put plainly: Insulin HTRF assay (relative activity Ar) in beta-TC6 cells. It is filed as cell-based, mouse. The note with it: Mus musculus, Beta-TC6, 4 h, insulin HTRF, supernatant of beta-TC6 cells, incubation with test compound at 37°C for 2, 3, 4h; read-out: Ar (relative activity). The gist of the method: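 beta-TC6 cells (15k/well, seeded 24 or 48 h) washed, then exposed to compound in induction buffer (0.5% DMSO final) for 2, 3 or 4 h at 37°C.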
In general terms: In TR-FRET formats the signal depends on donor and acceptor labels being close together.
`Cn1c(-c2ccccc2)nc2cnc(Nc3ccc4c(c3)OCO4)cc21` [Compound 706, N-(1,3-benzodioxol-5-yl)-1-methyl-2-phenyl-imidazo[4,5-c]pyridin-6-amine]: the Emax lay in the range of 50 to 100%.
In the case of `CNc1nc2cnc(-c3cccc(C(=O)NCCO)c3)cc2n1Cc1ccccc1` [Compound 794, 3-[1-benzyl-2-(methylamino)imidazo[4,5-c]pyridin-6-yl]-N-(2-hydroxyethyl)benzamide] it was 0 to 30%.
As for `CN(C)C(=O)c1ccc(-c2cc3cnc(Nc4cccnc4)cc3[nH]2)cc1` [Compound 22, N,N-dimethyl-4-[6-(3-pyridylamino)-1H-pyrrolo[3,2-c]pyridin-2-yl]benzamide], the figure is more than 100%; as for `CNc1nc2cnc(Nc3ccccc3)cc2n1Cc1cccnc1` [Compound 562, N2-methyl-N6-phenyl-1-(3-pyridylmethyl)imidazo[4,5-c]pyridine-2,6-diamine], 30 to 50%; as for `CNc1nc2cnc(Nc3cccc(O)c3)cc2n1Cc1ccccc1` [Compound 535, 3-[[1-benzyl-2-(methylamino)imidazo[4,5-c]pyridin-6-yl]amino]phenol], 50 to 100%.
As for `COc1ccc(CNc2nc3cnc(Nc4ccc(NC(C)=O)cc4)cc3n2C)cc1OC` [Compound 600, N-[4-[[2-[(3,4-dimethoxyphenyl)methylamino]-1-methyl-imidazo[4,5-c]pyridin-6-yl]amino]phenyl]acetamide], the figure is 50 to 100%; as for `COc1ccc(-c2nc3c(Nc4cccc(O)c4)nccc3[nH]2)cc1OC` [Compound 352, 3-[[2-(3,4-dimethoxyphenyl)-1H-imidazo[4,5-c]pyridin-4-yl]amino]phenol], more than 100%; as for `Cc1cccc(CNc2nc3cnc(Nc4ccc5c(c4)OCCO5)cc3n2C)c1` [Compound 577, N6-(2,3-dihydro-1,4-benzodioxin-6-yl)-1-methyl-N2-(m-tolylmethyl)imidazo[4,5-c]pyridine-2,6-diamine], 50 to 100%.
On to `COc1cccc(-c2cc3c(Nc4ccc(N5CCN(C)CC5)cc4)nccc3[nH]2)c1` [Compound 310, 2-(3-methoxyphenyl)-N-[4-(4-methylpiperazin-1-yl)phenyl]-1H-pyrrolo[3,2-c]pyridin-4-amine], for which the Emax lay within 50 to 100%.
As for `CC(=O)N(C)c1cccc(-c2cc3cnc(Nc4ccc(C(N)=O)cc4)cc3n2C)c1` [Compound 159, 4-[[2-[3-[acetyl(methyl)amino]phenyl]-1-methyl-pyrrolo[3,2-c]pyridin-6-yl]amino]benzamide], the figure is 50 to 100%; as for `c1ccc(Cn2cnc3c(NCc4cccs4)nccc32)cc1` [Compound 452, 1-benzyl-N-(2-thienylmethyl)imidazo[4,5-c]pyridin-4-amine], 30 to 50%.
As for `COc1ccc(-c2nc3c(NC4CCC(O)CC4)nccc3[nH]2)cc1OC` (stereo not shown) [Compound 348, 4-[[2-(3,4-dimethoxyphenyl)-1H-imidazo[4,5-c]pyridin-4-yl]amino]cyclohexanol], the figure is 30 to 50%; as for `CNc1nc2cnc(-c3ccc(O)c(OC)c3)cc2n1C` [Compound 612, 2-methoxy-4-[1-methyl-2-(methylamino)imidazo[4,5-c]pyridin-6-yl]phenol], 50 to 100%.
In the case of `COc1ccc(-c2nc3c(NCC(C)C)nccc3[nH]2)cc1OC` [Compound 344, 2-(3,4-dimethoxyphenyl)-N-isobutyl-1H-imidazo[4,5-c]pyridin-4-amine] it was 30 to 50%.
As to `Cn1cncc1-c1cc2cnc(Nc3ccc(F)cc3)cc2[nH]1` [Compound 106, N-(4-fluorophenyl)-2-(3-methylimidazol-4-yl)-1H-pyrrolo[3,2-c]pyridin-6-amine], the Emax lay in the range of 50 to 100%.
As for `COc1ccc(OC)c(CCNc2nc3cnc(-c4ccc(O)c(OC)c4)cc3n2C)c1` [Compound 594, 4-[2-[2-(2,5-dimethoxyphenyl)ethylamino]-1-methyl-imidazo[4,5-c]pyridin-6-yl]-2-methoxy-phenol], the figure is 30 to 50%; as for `CNc1nc2cnc(Nc3cccc(C(C)=O)c3)cc2n1CCN1CCOCC1` [Compound 558, 1-[3-[[2-(methylamino)-1-(2-morpholinoethyl)imidazo[4,5-c]pyridin-6-yl]amino]phenyl]ethanone], 50 to 100%; as for `Cn1c(NCC2CCCO2)nc2cnc(-c3cccs3)cc21` (stereo not shown) [Compound 852, 1-methyl-N-(tetrahydrofuran-2-ylmethyl)-6-(2-thienyl)imidazo[4,5-c]pyridin-2-amine], 30 to 50%.
On to `CC(=O)Nc1cccc(Nc2nccc3c2cc(-c2cccc(F)c2)n3C)c1` [Compound 210, N-[3-[[2-(3-fluorophenyl)-1-methyl-pyrrolo[3,2-c]pyridin-4-yl]amino]phenyl]acetamide], for which the Emax was in the range of 30 to 50%.
In the case of `CNc1nc2cnc(-c3cccs3)cc2n1-c1cccc(F)c1` [Compound 687, 1-(3-fluorophenyl)-N-methyl-6-(2-thienyl)imidazo[4,5-c]pyridin-2-amine] it was 50 to 100%; in that of `CC(=O)Nc1cccc(Nc2cc3c(cn2)cc(-c2ccc(C(=O)N(C)C)cc2)n3C)c1` [Compound 56, 4-[6-(3-acetamidoanilino)-1-methyl-pyrrolo[3,2-c]pyridin-2-yl]-N,N-dimethyl-benzamide], 50 to 100%; in that of `COc1ccc(Nc2nccc3[nH]c(-c4cccc(F)c4)nc23)cc1` [Compound 407, 2-(3-fluorophenyl)-N-(4-methoxyphenyl)-1H-imidazo[4,5-c]pyridin-4-amine], 50 to 100%.
As for `COc1ccc(Nc2cc3[nH]c(-c4cccc(F)c4)cc3cn2)cc1O` [Compound 11, 5-[[2-(3-fluorophenyl)-1H-pyrrolo[3,2-c]pyridin-6-yl]amino]-2-methoxy-phenol], the Emax lay in the range of 30 to 50%.
As for `CN1CCN(c2cc3[nH]c(-c4cccc(C(F)(F)F)c4)cc3cn2)CC1` [Compound 4, 6-(4-methylpiperazin-1-yl)-2-[3-(trifluoromethyl)phenyl]-1H-pyrrolo[3,2-c]pyridine], the figure is 30 to 50%; as for `Cn1cc(-c2cc3cnc(Nc4ccc(F)cc4)cc3n2C)cn1` [Compound 138, N-(4-fluorophenyl)-1-methyl-2-(1-methylpyrazol-4-yl)pyrrolo[3,2-c]pyridin-6-amine], 50 to 100%.
As for `CC(=O)Nc1cccc(Nc2cc3c(cn2)nc(NCc2ccccc2)n3C)c1` [Compound 627, N-[3-[[2-(benzylamino)-1-methyl-imidazo[4,5-c]pyridin-6-yl]amino]phenyl]acetamide], the figure is 50 to 100%; as for `CNc1nc2cnc(Nc3ccc(O)cc3)cc2n1-c1cc(OC)c(OC)c(OC)c1` [Compound 485, 4-[[2-(methylamino)-1-(3,4,5-trimethoxyphenyl)imidazo[4,5-c]pyridin-6-yl]amino]phenol], 50 to 100%.
In the case of `CC(=O)N(C)c1cccc(-c2cc3cnc(Nc4cccnc4)cc3n2C)c1` [Compound 162, N-methyl-N-[3-[1-methyl-6-(3-pyridylamino)pyrrolo[3,2-c]pyridin-2-yl]phenyl]acetamide] it was 50 to 100%.
On to `COCCCNc1nccc2[nH]c(-c3ccc4c(c3)OCCO4)nc12` [Compound 420, 2-(2,3-dihydro-1,4-benzodioxin-6-yl)-N-(3-methoxypropyl)-1H-imidazo[4,5-c]pyridin-4-amine], for which the Emax is 30 to 50%.
As for `COc1cccc(Nc2cc3[nH]c(-c4cncn4C)cc3cn2)c1` [Compound 101, N-(3-methoxyphenyl)-2-(3-methylimidazol-4-yl)-1H-pyrrolo[3,2-c]pyridin-6-amine], the figure is 50 to 100%; as for `c1ccc(CNc2nccc3[nH]c(-c4ccncc4)nc23)cc1` [Compound 428, N-benzyl-2-(4-pyridyl)-1H-imidazo[4,5-c]pyridin-4-amine], 30 to 50%; as for `CN(C)C(=O)c1ccc(Nc2cc3c(cn2)cc(-c2cnn(C)c2)n3C)cc1` [Compound 148, N,N-dimethyl-4-[[1-methyl-2-(1-methylpyrazol-4-yl)pyrrolo[3,2-c]pyridin-6-yl]amino]benzamide], more than 100%.
As for `COc1ccc(-c2nc3cnc(Nc4ccc5c(c4)OCO5)cc3n2C)cc1OC` [Compound 722, N-(1,3-benzodioxol-5-yl)-2-(3,4-dimethoxyphenyl)-1-methyl-imidazo[4,5-c]pyridin-6-amine], the figure is 30 to 50%.
On to `COc1ccc(Nc2cc3[nH]c(-c4ccccc4)cc3cn2)cc1OC` [Compound 175, N-(3,4-dimethoxyphenyl)-2-phenyl-1 H-pyrrolo[3,2-c]pyridin-6-amine], for which the Emax was in the range of 50 to 100%.
As for `CN(C)c1ccc(-c2cc3c(cn2)nc(Nc2ccccc2)n3C)cc1` [Compound 631, 6-(4-dimethylaminophenyl)-1-methyl-N-phenyl-imidazo[4,5-c]pyridin-2-amine], the figure is more than 100%; as for `CC(=O)N(C)c1cccc(-c2cc3cnc(Nc4ccc(S(C)(=O)=O)cc4)cc3n2C)c1` [Compound 173, N-methyl-N-[3-[1-methyl-6-(4-methylsulfonylanilino)pyrrolo[3,2-c]pyridin-2-yl]phenyl]acetamide], 30 to 50%.
`Cc1ccc(-c2nc3c(Nc4cccc(NS(C)(=O)=O)c4)nccc3[nH]2)cc1` [Compound 384, N-[3-[[2-(p-tolyl)-1H-imidazo[4,5-c]pyridin-4-yl]amino]phenyl]methanesulfonamide]: the Emax was 30 to 50%.
For `CNc1nc2cnc(-c3ccc(NC(C)=O)cc3)cc2n1Cc1ccccc1` [Compound 799, N-[4-[1-benzyl-2-(methylamino)imidazo[4,5-c]pyridin-6-yl]phenyl]acetamide], the Emax was in the range of 0 to 30%.
Turning to `Cn1c(-c2cccc(F)c2)cc2cnc(Nc3ccc(O)cc3)cc21` [Compound 17, 4-[[2-(3-fluorophenyl)-1-methyl-pyrrolo[3,2-c]pyridin-6-yl]amino]phenol], the Emax was 50 to 100%.
In the case of `c1cncc(Nc2nccc3[nH]c(-c4cccnc4)cc23)c1` [Compound 234, N,2-bis(3-pyridyl)-1H-pyrrolo[3,2-c]pyridin-4-amine] it was 50 to 100%.
